# Experimental data: PMC10755004, “Pyrimidine salvage in Toxoplasma gondii as a target for new treatment” (Frontiers in Cellular and Infection Microbiology, 2023)
# Several values for one entry are separate records, joined by “and”; a condition that tells them apart may be missing. Identical values can stand only once. Like-named read-outs stand apart in the source and are kept apart here.
# How the values were obtained:
# [1] = test system: T. gondii intracellular tachyzoites; experiment: Drug sensitivity assay for T. gondii tachyzoites in HFF cells (RFP fluorescence, 6 days); type: cell-based, Toxoplasma gondii; conditions: for effect on intracellular tachyzoites: concentrations up to 25 µM; for in vitro activity compared with sulfadiazine (in words): EC50 against T. gondii vs sulfadiazine; for EC50: intracellular tachyzoites in HFF, 6 days
# Description: The in vitro inhibitory effects of antimicrobial nucleoside agents on T. gondii growth were determined in HFF cell cultures using 96-well black plates (Optical-Bottom Plates with Polymer Base, Thermo Fisher Scientific). 150 – 200 µL of HFF cells were seeded into 96-well black plates and incubated for 3-5 days at 37°C under 5% CO2 in a humidified incubator. Once the HFF cells became confluent the supernatant was discarded and replaced with 100 µL fresh DMEMc media. Sulfadiazine (positive control) and the nucleoside compounds were already dissolved in DMSO at known concentrations, usually prepared as 10 mM. After that, every compound was diluted in DMEMc at 4x final concentration. The assays were performed in duplicate or triplicate throughout. 100 µL of 4x compounds were transferred to the wells of the first column of a 96-well black plate of which each well contained HFF cells in 100 µL DMEMc. The compounds were mixed, and 100 µL was transferred using the multichannel pipette to the next column before being transferred to each column through the entire plate over one row, leaving the last column as a negative control without drug. After that, naturally, freshly egressed parasites were collected and filtered through a 3-µm filter (Sigma-Aldrich). ~1000 parasites/well were added in 100 µL DMEMc (giving a total volume of 200 µL/well) and incubated for 6 days at a 37°C/5% CO2 in a humidified incubator. On day 6, a PHERAstar plate reader (BMG Labtech, Germany) was used to read the fluorescence intensity at 540 nm for excitation and 590 nm for emission. The EC50 values and fluorescence data were determined and plotted by using Prism 8.0 (GraphPad). Each experiment was independently performed 3-5 times.
# Most published protocols for in vitro drug screening against T. gondii use the MTT assay, which is a colorimetric assay that relies on tetrazolium salt and is used for accessing cell viability, cell proliferation and cytotoxicity for the host cells ([Jin et al., 2012]). Our protocol is an adaptation from a method that was used to evaluate antiretroviral compounds against T. gondii tachyzoites ([Wang et al., 2019]). These authors added 5×10^4 cells/mL freshly egressed tachyzoites to each well of a 96-well plate with an HFF cell monolayer, followed by incubation for 4 h to allow the cells to invade the host cells; the medium containing extracellular tachyzoites was then removed and fresh medium containing the desired concentration of the antiretroviral drugs was added to the wells and incubated for 5 days at 37°C and 5% CO2 in a humidified incubator ([Wang et al., 2019]). In our adaptation of this protocol, we aimed to eliminate the step of wash/removal of tachyzoites, in order to increase reproducibility. We thus prepared the serial dilutions of compounds in the 96-well plates containing the HFF monolayer cells and then added the lower number of 1×10^4 cells/mL freshly lysed tachyzoites to the 96-well plates, already containing both the HFF monolayer cells and tested compounds. The plates were then incubated for 6 days at 37°C and 5% CO2 in a humidified incubator. A major advantage that was introduced was detection of T. gondii in the wells, which was achieved by measuring fluorescence of the RFP-expressing parasites.
# [2] = biological target: uridine/uracil transporter 1 (TgUUT1); experiment: Transport of 0.1 µM [3H]-uridine into extracellular T. gondii tachyzoites (oil-stop technique); type: cell-based, Toxoplasma gondii; conditions: for Ki: inhibition of 0.1 µM [3H]-uridine transport; for δ(ΔG^0): loss of binding energy compared with uridine; for inhibition of [3H]-uridine uptake: 0.1 µM [3H]-uridine, 5 min; for Gibbs free energy of binding: from Km/Ki on [3H]-uridine transport; for Km: 0.1 µM label, tachyzoites, n=3
# T. gondii [3] = experiment: Mouse model of acute toxoplasmosis, parasite burden in lung by qPCR; type: in vivo, C57BL/6J mice; conditions: pyrimidines 25 mg/kg i.p., sulfadiazine oral in water, lung parasite burden day 10
# HFF cells [4] = conditions: for S.I.: selectivity index, HFF cytocidal EC50/tachyzoite EC50; for EC50: read-out: HFF ctotoxicity EC50 Cytostatic, uninfected HFF, 6 days
# HFF cells [5] = experiment: cells; conditions: Homo sapiens, 144 h
# [6] = test system: uridine/uracil transporter 1 (TgUUT1); experiment: Transport of 0.1 µM [3H]-uracil into extracellular T. gondii tachyzoites (oil-stop technique); type: cell-based, Toxoplasma gondii; conditions: for Ki: inhibition of 0.1 µM [3H]-uracil transport
# TgAT1 = test system: TgAT1; parameters: method as in Chiang et al., 1999; conditions: TgAT1 expressed in X. laevis oocytes; ref Chiang et al., 1999; cited from earlier work
# T. gondii tachyzoites = experiment: Uptake of tritiated pyrimidines by T. gondii tachyzoites over time; type: cell-based, Toxoplasma gondii
# T. gondii [7] = test system: T. gondii; parameters: method as in el Kouni et al., 1999; conditions: ref el Kouni et al., 1999; read-out: EC50 against T. gondii; cited from earlier work
# [8] = read-out: HFF ctotoxicity EC50 Cytostatic
# [9] = read-out: HFF ctotoxicity EC50 Cytostatic (second column)
smiles,measurement,setting,value
"O=c1ccn([C@H]2CC[C@@H](CO)O2)c(=O)[nH]1 [2’,3’-dideoxyuridine]",effect on intracellular tachyzoites,[1],no effect
O=c1ccn([C@H]2C[C@H](O)[C@@H](CO)O2)c(=O)[nH]1 [2’-Deoxyuridine],Ki,[2],134 ± 31 µM
same,δ(ΔG^0),[2],2.15 kcal/mol and 2.17 kcal/mol
same,effect on intracellular tachyzoites,[1],no effect
Cc1cn([C@H]2CC[C@@H](CO)O2)c(=O)[nH]c1=O [3’-deoxythymidine],effect on intracellular tachyzoites,[1],no effect
"O=c1[nH]c(=O)n([C@H]2C[C@H](O)[C@@H](CO)O2)cc1F [5-F,2’dUrd, 5-fluoro-2’deoxyuridine]",in vitro activity compared with sulfadiazine (in words),[1],well below
same,EC50,"[1]; Toxoplasma gondii, 144 h",0.67 ± 0.07 µM
same,"efficacy against acute toxoplasmosis, comparison between treatments",T. gondii [3],significantly less effective
same,"efficacy against acute toxoplasmosis, comparison between treatments","T. gondii [3]; listed as 5F,2’-deoxyuridine",similarly effective as sulfadiazine
same,S.I.,HFF cells [4],2205
same,EC50,HFF cells [5]; [8],0.19 ± 0.05 µM
same,EC50,HFF cells [5]; [9],1480 ± 510 µM
"O=c1[nH]cc(F)c(=O)[nH]1 [5-FU, 5-fluorouracil]",Ki,[2],5.24 ± 0.72 µM
same,δ(ΔG^0),[6]; 5-FU Ki compared to uracil Km,0.717 kcal/mol
same,Ki,[6],6.8 ± 2.12 µM
same,in vitro activity compared with sulfadiazine (in words),[1],well below
same,EC50,"[1]; Toxoplasma gondii, 144 h",1.13 ± 0.16 µM
same,"efficacy against acute toxoplasmosis, comparison between treatments",T. gondii [3],not significantly different from sulfadiazine
same,"efficacy against acute toxoplasmosis, comparison between treatments",T. gondii [3]; listed as 5F-uracil,similarly effective as sulfadiazine
same,S.I.,HFF cells [4],2720
same,EC50,HFF cells [5]; [8],2.49 ± 0.43 µM
same,EC50,HFF cells [5]; [9],3070 ± 340 µM
"O=c1[nH]c(=O)n([C@@H]2O[C@H](CO)[C@@H](O)[C@H]2O)cc1F [5-FUrd, 5-Flourouridine]",in vitro activity compared with sulfadiazine (in words),[1],well below
same,EC50,[1],0.45 ± 0.02 µM
same,EC50,"HFF cells [4]; first (low concentration) phase, growth inhibition",0.11 ± 0.1 µM
same,EC50,HFF cells [4]; second phase (cytocidal per footnote and text),20.4 ± 1 µM
same,S.I.,HFF cells [4],45
Cc1cn([C@@H]2O[C@H](CO)[C@@H](O)[C@H]2O)c(=O)[nH]c1=O [5-Methyluridine],Ki,[2],2380 ± 774 µM
C[C@H]1O[C@@H](n2ccc(=O)[nH]c2=O)[C@H](O)[C@@H]1O [5’-deoxyuridine],effect on intracellular tachyzoites,[1],no effect
Nc1ncnc2c1ncn2[C@@H]1O[C@H](CO)[C@@H](O)[C@H]1O [Adenosine],inhibition of TgUUT1 uridine uptake,[2]; 2500-fold excess of unlabeled inhibitor,~ 70%
same,Ki,[2],112 ± 6 µM
same,Km,TgAT1,114 µM
"Nc1ncnc2c1ncn2[C@@H]1O[C@H](CO)[C@@H](O)[C@@H]1O [Ara-A, adenine arabinoside]",EC50,[1],11.4 ± 1.8 µM
Nc1ccn([C@@H]2O[C@H](CO)[C@@H](O)[C@H]2O)c(=O)n1 [Cytidine],Rate of uptake,T. gondii tachyzoites; 0.20 µM radiolabel,0.0029 ± 0.0004 pmol(10^7 cells)^-1min^-1
same,Rate of uptake,"T. gondii tachyzoites; 0.20 µM radiolabel, listed as [^3H]-cytidine",0.0029 pmol(10^7 cells)^-1min^-1
O=c1[nH]cnc2c1ncn2[C@@H]1O[C@H](CO)[C@@H](O)[C@H]1O [Inosine],Ki,[2],28.2 ± 4.1 µM
O=[N+]([O-])c1ccc(CSc2ncnc3c2ncn3[C@@H]2O[C@H](CO)[C@@H](O)[C@H]2O)cc1 [NBMPR],EC50,[1],3.19 ± 0.14 µM
same,EC50,T. gondii [7],10.2 µM
CCc1nc(N)nc(N)c1-c1ccc(Cl)cc1 [Pyrimethamine],EC50,"[1]; Toxoplasma gondii, 144 h",16.2 µM
Nc1ccc(S(=O)(=O)Nc2ncccn2)cc1 [Sulfadiazine],EC50,"[1]; Toxoplasma gondii, 144 h",12.4 ± 1.08 µM
Cc1cn([C@H]2C[C@H](O)[C@@H](CO)O2)c(=O)[nH]c1=O [Thymidine],inhibition of [3H]-uridine uptake,[2]; 250 µM inhibitor,somewhat inhibited
same,Gibbs free energy of binding,[2],-4.09 kcal/mol
same,Ki,[2],1010 ± 145 µM
same,δ(ΔG^0),[2],3.37 kcal/mol and 3.39 kcal/mol
same,inhibition of [3H]-thymidine uptake,"T. gondii tachyzoites; 0.25 µM [3H]-thymidine over 10 min, 1 mM unlabeled inhibitor",did not significantly inhibit
same,Rate of uptake,"T. gondii tachyzoites; 0.25 µM radiolabel, over 10 min",0.00071 ± 0.00016 pmol(10^7 cells)^-1min^-1
O=c1cc[nH]c(=O)[nH]1 [Uracil],inhibition of [3H]-uridine uptake,[2]; 250 µM inhibitor,80%
same,Ki,[2],1.15 ± 0.07 µM
same,Vmax,[6]; [3H]-uracil as substrate,0.166 pmol(10^7 cells)^-1 min^-1
same,Km,"[6]; [3H]-uracil as substrate, 0.1 µM label, tachyzoites, n=3",2.05 ± 0.4 µM
same,Rate of uptake,T. gondii tachyzoites; 0.10 µM radiolabel,0.026 ± 0.0014 pmol(10^7 cells)^-1min^-1
same,Rate of uptake,"T. gondii tachyzoites; 0.10 µM radiolabel, listed as [^3H]-uracil",0.026 pmol(10^7 cells)^-1min^-1
O=c1ccn([C@@H]2O[C@H](CO)[C@@H](O)[C@H]2O)c(=O)[nH]1 [Uridine],inhibition of [3H]-uridine uptake,[2]; 1 mM unlabeled inhibitor,90%
same,Vmax,[2]; [3H]-uridine as substrate,1.21 ± 0.24 pmol(10^7 cells)^-1 min^-1
same,Km,"[2]; [3H]-uridine as substrate, listed as [^3H]-uridine",3.34 ± 0.82 µM
same,Km,"[2]; [3H]-uridine as substrate, listed as uridine",3.3 ± 0.8 µM
same,Gibbs free energy of binding,[2],-7.46 kcal/mol
same,Ki,[6],2.44 ± 0.59 µM
same,Rate of uptake,T. gondii tachyzoites; 0.10 µM radiolabel,0.011 ± 0.0006 pmol(10^7 cells)^-1min^-1
same,inhibition of [3H]-cytidine uptake,"T. gondii tachyzoites; 0.2 µM [3H]-cytidine, 1 mM unlabeled inhibitor",fully inhibited
same,inhibition of [3H]-thymidine uptake,"T. gondii tachyzoites; 0.25 µM [3H]-thymidine, 250 µM inhibitor",did not inhibit
same,inhibition at 250 µM,"T. gondii tachyzoites; Toxoplasma gondii, [3H]-cytidine, 250 µM inhibitor",100%
